Measurements reported in US10526316B2, “Quinoxaline and pyridopyrazine derivatives as PI3Kβ inhibitors” (Janssen Pharmaceutica NV, priority 2015, dated 2020).
pIC50, pKd: −log10 of the molar value. Read-outs that look alike come from different tables or passages of the source.

Tests used:
kinase enzymes [1] = target: T1, kinase enzymes (Homo sapiens, UniProt P42336); test: Enzyme binding assay (KINOMEscan, DiscoveRx), further kinases of Table A; conditions: PIK3Cα_h
T1 construct: purchased DiscoveRx Corporation, San Diego (contract service, KINOMEscan)
How it was run: (§1)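 Binding affinities were measured on the KINOMEscan platform.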

kinase enzymes [2] = target: T2, kinase enzymes (Homo sapiens, UniProt P42345); test: as above; conditions: MTOR_h
T2 construct: purchased DiscoveRx Corporation, San Diego (contract service, KINOMEscan)
How it was run: as §1

kinase enzymes [3] = target: T3, kinase enzymes (Homo sapiens, UniProt P48736); test: as above; conditions: PIK3Cγ_h
T3 construct: purchased DiscoveRx Corporation, San Diego (contract service, KINOMEscan)
How it was run: as §1

[4] = system: Akt phosphorylated at Thr308 in PC-3 cells; test: Cellular assay: phosphorylation of Akt at Thr308 in PC-3 cells (MSD ELISA); format: cell-based; conditions: PC-3 cells, 60 min compound incubation, MSD ELISA, read-out: IC50 pAkt_Thr308
How it was run: (§2)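 Phospho-Akt in whole-cell lysates is quantified by electrochemiluminescent immunoassay using phospho-site capture and total-Akt detection antibodies.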

PI3Kδ = target: T4, PI3Kδ (Homo sapiens, UniProt O00329); test: Enzyme binding assay (KINOMEscan, DiscoveRx); conditions: PIK3Cδ_h
T4 construct: purchased DiscoveRx Corporation, San Diego (contract service, KINOMEscan)
T4 sequence (O00329 1-1044): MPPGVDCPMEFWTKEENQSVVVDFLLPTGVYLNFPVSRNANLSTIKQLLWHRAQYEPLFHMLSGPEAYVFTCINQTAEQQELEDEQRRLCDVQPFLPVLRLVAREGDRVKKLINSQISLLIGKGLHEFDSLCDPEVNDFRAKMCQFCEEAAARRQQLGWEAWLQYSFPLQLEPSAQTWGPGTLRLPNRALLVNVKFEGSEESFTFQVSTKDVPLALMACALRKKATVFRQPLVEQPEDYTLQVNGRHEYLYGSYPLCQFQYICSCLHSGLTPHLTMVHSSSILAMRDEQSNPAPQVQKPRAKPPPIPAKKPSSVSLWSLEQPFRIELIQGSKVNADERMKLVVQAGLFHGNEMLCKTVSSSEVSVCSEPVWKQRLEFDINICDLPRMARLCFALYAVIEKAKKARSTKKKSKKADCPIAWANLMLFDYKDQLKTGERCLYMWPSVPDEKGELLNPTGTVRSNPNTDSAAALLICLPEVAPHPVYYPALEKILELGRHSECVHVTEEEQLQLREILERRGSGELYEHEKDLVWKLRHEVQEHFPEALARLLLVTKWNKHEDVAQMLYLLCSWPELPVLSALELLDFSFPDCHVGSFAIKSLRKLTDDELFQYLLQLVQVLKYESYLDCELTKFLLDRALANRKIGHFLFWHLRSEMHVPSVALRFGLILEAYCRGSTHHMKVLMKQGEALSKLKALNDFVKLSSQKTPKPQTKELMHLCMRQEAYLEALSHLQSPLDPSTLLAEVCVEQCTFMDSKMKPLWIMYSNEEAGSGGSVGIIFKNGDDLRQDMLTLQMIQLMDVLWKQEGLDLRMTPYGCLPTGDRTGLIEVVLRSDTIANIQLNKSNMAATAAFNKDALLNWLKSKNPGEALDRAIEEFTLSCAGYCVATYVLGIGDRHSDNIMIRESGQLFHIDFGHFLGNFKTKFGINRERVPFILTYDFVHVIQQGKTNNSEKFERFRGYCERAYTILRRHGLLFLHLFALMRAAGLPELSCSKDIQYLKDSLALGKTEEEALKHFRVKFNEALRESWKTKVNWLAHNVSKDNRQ
How it was run: as §1

[5] = system: Akt phosphorylated at Ser473 in PC-3 cells; test: Cellular assay: phosphorylation of Akt at Ser473 in PC-3 cells (MSD ELISA); format: cell-based; conditions: PC-3 cells, 60 min compound incubation, MSD ELISA, read-out: IC50 pAkt_S473
How it was run: as §2

PI3Kβ = target: T5, PI3Kβ (Homo sapiens, UniProt P42338); test: Enzyme binding assay (KINOMEscan, DiscoveRx); conditions: PIK3Cβ_h, read-out: Kd PIK3Cβ_h
T5 construct: purchased DiscoveRx Corporation, San Diego (contract service, KINOMEscan)
How it was run: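 Kinase binding affinities were measured with KINOMEscan technology. Results are given as Kd, the inhibitor binding constant, in nM.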

T3 sequence (P48736 whole entry): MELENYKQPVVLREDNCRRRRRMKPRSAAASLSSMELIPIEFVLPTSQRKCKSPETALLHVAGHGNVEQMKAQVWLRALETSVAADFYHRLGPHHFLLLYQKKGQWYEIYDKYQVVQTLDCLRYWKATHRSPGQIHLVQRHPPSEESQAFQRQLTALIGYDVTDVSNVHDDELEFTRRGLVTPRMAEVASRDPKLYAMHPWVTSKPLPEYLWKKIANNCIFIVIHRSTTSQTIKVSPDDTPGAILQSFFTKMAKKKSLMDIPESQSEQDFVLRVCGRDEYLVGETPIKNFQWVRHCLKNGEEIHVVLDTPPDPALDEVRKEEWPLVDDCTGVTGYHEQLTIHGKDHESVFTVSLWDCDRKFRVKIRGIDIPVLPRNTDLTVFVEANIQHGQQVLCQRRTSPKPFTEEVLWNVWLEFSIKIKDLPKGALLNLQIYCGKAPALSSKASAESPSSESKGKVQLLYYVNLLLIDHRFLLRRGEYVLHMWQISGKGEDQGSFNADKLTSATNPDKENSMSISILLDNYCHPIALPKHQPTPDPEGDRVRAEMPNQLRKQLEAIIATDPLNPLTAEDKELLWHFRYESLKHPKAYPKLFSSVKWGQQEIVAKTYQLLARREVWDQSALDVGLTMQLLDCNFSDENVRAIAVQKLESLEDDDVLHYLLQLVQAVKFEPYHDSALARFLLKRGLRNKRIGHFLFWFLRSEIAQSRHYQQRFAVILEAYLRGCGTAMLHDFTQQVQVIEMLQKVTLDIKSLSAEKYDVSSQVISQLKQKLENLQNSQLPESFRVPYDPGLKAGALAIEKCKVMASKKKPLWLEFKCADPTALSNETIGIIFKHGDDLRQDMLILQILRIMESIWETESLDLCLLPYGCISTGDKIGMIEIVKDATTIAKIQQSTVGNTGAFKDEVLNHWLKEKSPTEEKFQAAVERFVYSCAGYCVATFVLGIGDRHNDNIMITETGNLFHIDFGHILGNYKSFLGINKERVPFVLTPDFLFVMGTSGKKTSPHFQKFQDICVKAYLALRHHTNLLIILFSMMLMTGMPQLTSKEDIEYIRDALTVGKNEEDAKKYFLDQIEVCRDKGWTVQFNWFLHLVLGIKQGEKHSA
T5 sequence (P42338 whole entry): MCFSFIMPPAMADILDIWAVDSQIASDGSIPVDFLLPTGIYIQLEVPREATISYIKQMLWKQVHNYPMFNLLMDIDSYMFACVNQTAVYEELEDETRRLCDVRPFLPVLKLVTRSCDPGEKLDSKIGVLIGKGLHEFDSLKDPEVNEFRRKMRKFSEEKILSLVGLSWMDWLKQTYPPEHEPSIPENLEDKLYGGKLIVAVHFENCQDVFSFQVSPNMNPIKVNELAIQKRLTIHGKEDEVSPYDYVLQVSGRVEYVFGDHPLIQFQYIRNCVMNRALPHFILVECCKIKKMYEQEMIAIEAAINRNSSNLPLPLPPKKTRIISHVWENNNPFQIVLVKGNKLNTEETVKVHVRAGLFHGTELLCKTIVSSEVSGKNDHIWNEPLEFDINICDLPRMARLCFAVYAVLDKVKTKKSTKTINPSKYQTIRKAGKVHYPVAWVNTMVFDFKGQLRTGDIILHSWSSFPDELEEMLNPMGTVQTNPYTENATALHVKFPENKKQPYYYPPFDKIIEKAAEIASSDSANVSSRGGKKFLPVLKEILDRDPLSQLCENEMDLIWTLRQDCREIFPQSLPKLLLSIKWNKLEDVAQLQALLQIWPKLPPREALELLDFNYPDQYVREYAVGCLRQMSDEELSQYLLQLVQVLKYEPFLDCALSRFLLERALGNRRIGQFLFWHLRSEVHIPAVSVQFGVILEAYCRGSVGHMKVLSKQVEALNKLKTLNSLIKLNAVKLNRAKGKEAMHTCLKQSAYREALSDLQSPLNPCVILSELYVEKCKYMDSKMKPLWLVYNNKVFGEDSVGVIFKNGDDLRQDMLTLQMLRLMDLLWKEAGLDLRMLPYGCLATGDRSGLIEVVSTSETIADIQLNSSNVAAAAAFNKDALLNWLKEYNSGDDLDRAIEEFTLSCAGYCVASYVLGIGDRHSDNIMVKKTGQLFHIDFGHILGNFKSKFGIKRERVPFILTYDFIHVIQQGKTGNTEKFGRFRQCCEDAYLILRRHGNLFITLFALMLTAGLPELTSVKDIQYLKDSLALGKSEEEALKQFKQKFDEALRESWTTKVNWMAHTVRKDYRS
T1 sequence (P42336 whole entry): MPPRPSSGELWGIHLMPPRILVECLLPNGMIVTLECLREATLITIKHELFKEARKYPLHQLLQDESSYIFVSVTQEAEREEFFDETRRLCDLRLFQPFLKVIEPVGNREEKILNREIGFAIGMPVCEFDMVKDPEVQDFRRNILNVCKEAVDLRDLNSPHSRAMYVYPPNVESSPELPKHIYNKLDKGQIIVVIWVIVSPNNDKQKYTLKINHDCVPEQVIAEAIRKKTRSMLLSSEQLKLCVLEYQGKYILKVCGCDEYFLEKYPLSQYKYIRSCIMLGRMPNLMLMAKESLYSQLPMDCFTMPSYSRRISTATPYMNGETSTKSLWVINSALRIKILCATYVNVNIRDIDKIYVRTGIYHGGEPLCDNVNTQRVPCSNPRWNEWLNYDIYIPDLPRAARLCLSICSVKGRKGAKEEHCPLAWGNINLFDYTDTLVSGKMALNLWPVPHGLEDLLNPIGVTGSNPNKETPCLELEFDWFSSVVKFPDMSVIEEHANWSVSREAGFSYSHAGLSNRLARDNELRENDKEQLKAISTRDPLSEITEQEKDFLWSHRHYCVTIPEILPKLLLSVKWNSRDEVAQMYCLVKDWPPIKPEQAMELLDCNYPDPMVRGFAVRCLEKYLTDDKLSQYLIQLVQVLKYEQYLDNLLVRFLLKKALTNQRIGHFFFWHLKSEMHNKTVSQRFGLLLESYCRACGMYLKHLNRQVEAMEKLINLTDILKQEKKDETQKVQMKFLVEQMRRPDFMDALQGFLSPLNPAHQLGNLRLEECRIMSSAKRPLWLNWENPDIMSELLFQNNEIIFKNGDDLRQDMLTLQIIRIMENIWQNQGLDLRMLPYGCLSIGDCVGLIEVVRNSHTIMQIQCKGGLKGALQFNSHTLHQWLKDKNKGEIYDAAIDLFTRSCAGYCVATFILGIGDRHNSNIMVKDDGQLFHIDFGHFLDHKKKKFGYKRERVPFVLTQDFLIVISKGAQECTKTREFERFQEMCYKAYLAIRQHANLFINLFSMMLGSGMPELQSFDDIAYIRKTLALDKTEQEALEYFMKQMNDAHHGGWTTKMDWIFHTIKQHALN

Compound	pKd (kinase enzymes [1])	pKd (kinase enzymes [2])	pKd (kinase enzymes [3])	pIC50 ([4]; Homo sapiens, PC-3, 1 h)	pKd (PI3Kδ)	pIC50 ([5]; Homo sapiens, PC-3, 1 h)	pKd (PI3Kβ)	pIC50 [4]	pIC50 [5]
COC(=O)[C@H]1CCCN1C(=O)c1cc(C(C)Nc2cc(F)cc(F)c2)c2nc(N3CCOCC3)cnc2c1 (some centres unmarked) [Compound 272]	5.31	< 4.52	< 4.52	~7.07	5.70	6.82	8.30	–	–
COC(=O)[C@@H]1CCCN1C(=O)c1cc(C(C)Nc2cc(F)cc(F)c2)c2nc(N3CCOCC3)cnc2c1 (some centres unmarked) [Compound 273]	5.20	< 4.52	< 5.00	~6.59	5.56	6.35	8.10	–	–
CC(Nc1cc(F)c(F)c(F)c1)c1cc(C(=O)N(C)C2CCNC2)cc2ncc(N3CCOCC3)nc12 (centres unmarked) [Compound 296]	5.53	< 4.52	5.19	7.85	6.78	7.38	9.00	–	–
CC(Nc1ccc(F)c(F)c1)c1cc(C(=O)NCCN(C)C)cc2ncc(N3CCOCC3)nc12 (centres unmarked) [Compound 299b]	4.88	< 4.52	4.71	–	5.28	–	7.22	< 6.29	< 6.29
CC(Nc1ccc(F)c(F)c1)c1cc(C(=O)N2CC[C@@H](O)C2)cc2ncc(N3CCOCC3)nc12 (some centres unmarked) [Compound 300]	5.57	< 4.52	4.77	7.07	6.29	7.15	8.40	–	–
CC(Nc1cc(F)cc(F)c1)c1cc(-c2cc[nH]n2)cc2ncc(N3CCOCC3)nc12 (centres unmarked) [Compound 304]	5.14	< 4.52	4.70	6.53	5.17	< 6.29	7.21	–	–
CN(Cc1cc(F)cc(F)c1)c1cc(C(=O)N2CCNC(C(F)(F)F)C2)cc2ncc(N3CCOCC3)nc12 (centres unmarked) [Compound 319b]	5.36	< 4.52	< 4.52	< 6.29	5.99	< 6.29	7.23	–	–
CN(C)C(=O)c1cc(CNc2cc(F)cc(F)c2)c2nc(N3CCOCC3)cnc2c1 [Compound 332]	5.53	< 4.52	4.67	6.95	5.37	~6.50	7.82	–	–
CC(Nc1cccc(F)c1)c1cc(C(=O)NC[C@@H](C)O)cc2ncc(N3CCOCC3)nc12 (some centres unmarked) [Compound 338]	5.63	< 4.52	5.36	7.01	5.53	6.56	7.92	–	–
CC(Nc1cc(F)cc(F)c1)c1cc(C(C)(C)O)cc2ncc(N3CCOCC3)nc12 (centres unmarked) [Compound 341]	5.47	4.67	5.09	7.59	5.83	7.34	7.77	–	–
CN[C@H]1CCN(C(=O)c2cc(NCc3cc(F)cc(F)c3)c3nc(N4CCOCC4)cnc3c2)C1 [Compound 352]	5.64	< 4.52	5.01	7.68	6.00	7.85	8.70	–	–
Cc1c(F)cccc1CN(C)c1cc(C(=O)N(C)C)cc2ncc(N3CCOCC3)nc12 [Compound 354]	5.09	< 4.52	4.55	< 6.29	5.62	< 6.29	7.20	–	–
Cc1c(F)cccc1CN(C)c1cc(C(=O)N(C)[C@@H]2CCNC2)cc2ncc(N3CCOCC3)nc12 [Compound 359]	4.95	5.19	4.54	< 6.29	6.10	< 6.29	7.37	–	–
CC(C)N1CCCN(C(=O)c2cc(NCc3cc(F)cc(F)c3)c3nc(N4CCOCC4)cnc3c2)CC1 [Compound 360]	5.17	< 4.52	4.57	< 6.29	4.93	< 6.29	7.38	–	–
CNCCN(C)C(=O)c1cc(N(C)Cc2cccc(F)c2C)c2nc(N3CCOCC3)cnc2c1 [Compound 362]	5.53	4.72	5.01	6.58	6.31	6.64	8.70	–	–
CN(C(=O)c1cc(NCc2cc(F)cc(F)c2)c2nc(N3CCOCC3)cnc2c1)[C@H]1CCNC1 [Compound 368]	5.27	< 4.52	< 4.52	~7.64	5.85	6.92	8.15	–	–
CC(C)N1CCCN(C(=O)c2cc(N(C)Cc3cc(F)cc(F)c3)c3nc(N4CCOCC4)cnc3c2)CC1 [Compound 373]	< 4.52	< 4.52	< 4.52	< 6.29	5.28	< 6.29	6.80	–	–
CNCCN(C)C(=O)c1cc(C(C)Oc2cc(F)c(F)c(F)c2)c2nc(N3CCOCC3)cnc2c1 (centres unmarked) [Compound 379a]	5.01	< 4.52	< 4.52	7.66	6.09	~7.54	8.70	–	–
Cc1c(F)cccc1NCc1cc(C(=O)NCCO)cc2ncc(N3CCOCC3)nc12 [Compound 381]	5.45	< 4.52	5.08	6.93	5.42	6.68	7.59	–	–
CN(C)CCNC(=O)c1cc(NCc2cc(F)cc(F)c2)c2nc(N3CCOCC3)cnc2c1 [Compound 384]	5.57	4.70	4.80	8.15	6.24	7.70	9.00	–	–
Cc1c(F)cccc1CNc1cc(C(=O)N(C)CCNC(C)C)cc2ncc(N3CCOCC3)nc12 [Compound 385]	6.03	4.78	5.21	7.70	6.46	7.49	9.00	–	–
Cc1c(F)cccc1CN(C)c1cc(C(=O)N(C)CCNC(C)C)cc2ncc(N3CCOCC3)nc12 [Compound 386]	5.49	4.61	4.83	< 6.29	6.16	< 6.29	7.82	–	–
CC(C)NCCN(C)C(=O)c1cc(NCc2cc(F)cc(F)c2)c2nc(N3CCOCC3)cnc2c1 [Compound 389]	5.50	< 4.52	< 4.52	7.55	5.66	7.41	8.30	–	–
O=C(NCCO)c1cc(N2CCC2c2ccc(F)cc2)c2nc(N3CCOCC3)cnc2c1 (centres unmarked) [Compound 391]	5.26	4.61	4.92	< 6.29	5.47	< 6.29	6.60	–	–
CC1CN(c2cnc3cc(C(=O)N(C)C)cc(N4CCCC4c4cc(F)cc(F)c4)c3n2)CCO1 (centres unmarked) [Compound 396]	5.11	< 4.52	4.68	< 6.29	5.69	< 6.29	6.92	–	–
CN(C)C(=O)c1cc(N2CCC[C@@H]2c2cc(F)cc(F)c2)c2nc(C3=CCOCC3)cnc2c1 [Compound 398]	4.97	< 4.52	< 4.52	< 6.29	5.24	< 6.29	6.59	–	–
